According to PubChem BioAssay (NCI):
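Each compound was tested at five concentrations against cells in 96-well plates for 48 hours. GI50: concentration for 50% inhibition of growth. Definition used: TGI = concentration required for complete inhibition of growth.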

What was measured:
Test in all cases: inhibition of tumour cell growth, NCI panel, 48 h
HCT-116 colon = test system: HCT-116 colon
KM12 colon = test system: KM12 colon
HS 578T breast = test system: HS 578T breast
OVCAR-8 ovarian = test system: OVCAR-8 ovarian
NCI-H23 lung = test system: NCI-H23 lung
SK-MEL-2 melanoma = test system: SK-MEL-2 melanoma
CAKI-1 renal = test system: CAKI-1 renal
NCI-H522 lung = test system: NCI-H522 lung
HCC-2998 colon = test system: HCC-2998 colon
NCI-H460 lung = test system: NCI-H460 lung
A549 NSCLC = test system: A549 NSCLC
SF-539 CNS = test system: SF-539 CNS
COLO 205 colon = test system: COLO 205 colon
HL-60(TB) leukemia = test system: HL-60(TB) leukemia
MDA-MB-231 breast = test system: MDA-MB-231 breast
K-562 leukemia = test system: K-562 leukemia
RXF 393 renal = test system: RXF 393 renal
HCT-15 colon = test system: HCT-15 colon
TK-10 renal = test system: TK-10 renal
M14 melanoma = test system: M14 melanoma
MALME-3M melanoma = test system: MALME-3M melanoma
IGROV1 ovarian = test system: IGROV1 ovarian
ACHN renal = test system: ACHN renal
UACC-62 melanoma = test system: UACC-62 melanoma
MDA-MB-435 = test system: MDA-MB-435
SF-295 CNS = test system: SF-295 CNS
RPMI-8226 leukemia = test system: RPMI-8226 leukemia
OVCAR-5 ovarian = test system: OVCAR-5 ovarian
UACC-257 melanoma = test system: UACC-257 melanoma
SK-OV-3 ovarian = test system: SK-OV-3 ovarian
SN12C renal = test system: SN12C renal
SNB-19 CNS = test system: SNB-19 CNS
NCI-H226 lung = test system: NCI-H226 lung
T-47D breast = test system: T-47D breast
LOX IMVI melanoma = test system: LOX IMVI melanoma
UO-31 renal = test system: UO-31 renal
PC-3 prostate = test system: PC-3 prostate
A498 renal = test system: A498 renal
HOP-62 NSCLC = test system: HOP-62 NSCLC
MOLT-4 leukemia = test system: MOLT-4 leukemia
SNB-75 CNS = test system: SNB-75 CNS
MCF7 breast = test system: MCF7 breast
SW-620 colon = test system: SW-620 colon
OVCAR-4 ovarian = test system: OVCAR-4 ovarian
MDA-MB-468 breast = test system: MDA-MB-468 breast
786-0 renal = test system: 786-0 renal
SK-MEL-5 melanoma = test system: SK-MEL-5 melanoma
U251 CNS = test system: U251 CNS
HOP-92 NSCLC = test system: HOP-92 NSCLC
SF-268 CNS = test system: SF-268 CNS
SK-MEL-28 melanoma = test system: SK-MEL-28 melanoma
HT29 colon = test system: HT29 colon
BT-549 breast = test system: BT-549 breast
DU-145 prostate = test system: DU-145 prostate
CCRF-CEM leukemia = test system: CCRF-CEM leukemia
OVCAR-3 ovarian = test system: OVCAR-3 ovarian
SR leukemia = test system: SR leukemia
EKVX NSCLC = test system: EKVX NSCLC

## O=C(/C=C/c1cccc(OCc2ccc(F)cc2)c1)c1nc2ccccc2[nH]1
HCT-116 colon
  GI50: 11.9 µM
  TGI: 31.4 µM
KM12 colon
  GI50: 13.5 µM
  TGI: 65.9 µM
HS 578T breast
  GI50: 25.9 µM
  TGI: 95.7 µM
OVCAR-8 ovarian
  GI50: 34.4 µM
  TGI: > 100 µM
NCI-H23 lung
  GI50: 20.5 µM
  TGI: 57.1 µM
SK-MEL-2 melanoma
  GI50: 81.3 µM
  TGI: > 100 µM
CAKI-1 renal
  GI50: 24.5 µM
  TGI: > 100 µM
NCI-H522 lung
  GI50: 27.5 µM
  TGI: > 100 µM
HCC-2998 colon
  GI50: 15.5 µM
  TGI: 30 µM
NCI-H460 lung
  GI50: 34.8 µM
  TGI: > 100 µM
A549 NSCLC
  GI50: 65.1 µM
  TGI: > 100 µM
SF-539 CNS
  GI50: 17.6 µM
  TGI: 32.2 µM
COLO 205 colon
  GI50: 39.8 µM
  TGI: > 100 µM
HL-60(TB) leukemia
  GI50: 19.5 µM
  TGI: 62.4 µM
MDA-MB-231 breast
  GI50: 18.4 µM
  TGI: 47.8 µM
K-562 leukemia
  GI50: 8.34 µM
  TGI: 78.8 µM
RXF 393 renal
  GI50: 15 µM
  TGI: 31.2 µM
HCT-15 colon
  GI50: 13 µM
  TGI: 28.6 µM
TK-10 renal
  GI50: 35.1 µM
  TGI: > 100 µM
M14 melanoma
  GI50: 25.5 µM
  TGI: 83.6 µM
MALME-3M melanoma
  GI50: 69.4 µM
  TGI: > 100 µM
IGROV1 ovarian
  GI50: 21.9 µM
  TGI: 66.6 µM
ACHN renal
  GI50: 47 µM
  TGI: > 100 µM
UACC-62 melanoma
  GI50: 18.7 µM
  TGI: > 100 µM
MDA-MB-435
  GI50: 21.2 µM
  TGI: 59.9 µM
SF-295 CNS
  GI50: 32.7 µM
  TGI: > 100 µM
RPMI-8226 leukemia
  GI50: 3.09 µM
  TGI: 10.8 µM
OVCAR-5 ovarian
  GI50: 29.3 µM
  TGI: > 100 µM
UACC-257 melanoma
  GI50: 66.2 µM
  TGI: > 100 µM
SK-OV-3 ovarian
  GI50: > 100 µM
  TGI: > 100 µM
SN12C renal
  GI50: 62.9 µM
  TGI: > 100 µM
SNB-19 CNS
  GI50: 25.3 µM
  TGI: > 100 µM
NCI-H226 lung
  GI50: 51 µM
  TGI: > 100 µM
T-47D breast
  GI50: 29.2 µM
  TGI: > 100 µM
LOX IMVI melanoma
  GI50: 11.4 µM
  TGI: 25.4 µM
UO-31 renal
  GI50: 13.4 µM
  TGI: 29 µM
PC-3 prostate
  GI50: 27.1 µM
  TGI: > 100 µM
A498 renal
  GI50: > 100 µM
  TGI: > 100 µM
HOP-62 NSCLC
  GI50: 41.5 µM
  TGI: > 100 µM
MOLT-4 leukemia
  GI50: 21.9 µM
  TGI: > 100 µM
SNB-75 CNS
  GI50: 34.2 µM
  TGI: > 100 µM
MCF7 breast
  GI50: 4.52 µM
  TGI: 32.5 µM
SW-620 colon
  GI50: 12.2 µM
  TGI: 34.3 µM
OVCAR-4 ovarian
  GI50: 66.5 µM
  TGI: > 100 µM
MDA-MB-468 breast
  GI50: 15 µM
  TGI: 32.3 µM
786-0 renal
  GI50: 18.5 µM
  TGI: 45.9 µM
SK-MEL-5 melanoma
  GI50: 31.7 µM
  TGI: > 100 µM
U251 CNS
  GI50: 13.5 µM
  TGI: 35.7 µM
HOP-92 NSCLC
  GI50: 8.64 µM
  TGI: 67.5 µM
SF-268 CNS
  GI50: 37.7 µM
  TGI: > 100 µM
SK-MEL-28 melanoma
  GI50: 21.9 µM
  TGI: 61.2 µM
HT29 colon
  GI50: 18.4 µM
  TGI: 40.1 µM
BT-549 breast
  GI50: 18.4 µM
  TGI: 46.4 µM
DU-145 prostate
  GI50: 29.5 µM
  TGI: > 100 µM
CCRF-CEM leukemia
  GI50: 10.9 µM
  TGI: > 100 µM
OVCAR-3 ovarian
  GI50: 13.4 µM
  TGI: 37.6 µM
SR leukemia
  GI50: 4.68 µM
  TGI: > 100 µM
EKVX NSCLC
  GI50: 41.3 µM
  TGI: > 100 µM
